Assay results published in patent US7816351B2, “5,6-dimethylthieno[2,3-di] pyrimidine derivatives, the preparation method thereof and the pharmaceutical composition comprising the same for anti-virus” (Equispharm Co., Ltd, priority 2005, dated 2010).
pEC50: −log10 of the molar value.

tested on: hepatitis C virus replicon NK-R2AN in Huh-7 cells; test: microbe, parasite or virus in culture; assay type: cell-based; conditions: Huh-7 cells containing replicon NK-R2AN, 48 hours, renilla luciferase activity relative to protein amount, read-out: HCV replicon inhibitory activity (EC50)

Compound | pEC50
Cc1sc2nc(N3CCN(C(=O)c4ccccn4)CC3)nc(Nc3ccc(N4CCOCC4)cc3)c2c1C [Example 1, 4-[5,6-dimethyl-4-(4-morpholin-4-yl-phenylamino)-thieno[2,3-d]pyrimidin-2-yl]-piperazin-1-yl-pyridin-2-yl-methanone] | 6.17
Cc1sc2nc(N3CCN(C(=O)c4ccncc4)CC3)nc(Nc3ccc(N4CCOCC4)cc3)c2c1C [Example 3, 4-[5,6-dimethyl-4-(4-morpholin-4-yl-phenylamino)-thieno[2,3-d]pyrimidin-2-yl]-piperazin-1-yl-pyridin-4-yl-methanone] | 6.32
Cc1sc2nc(N3CCN(C(=O)c4cccnc4)CC3)nc(Nc3ccc(N4CCOCC4)nc3)c2c1C [Example 5, 4-[5,6-dimethyl-4-(6-morpholinopyridin-3-ylamino)-thieno[2,3-d]pyrimidin-2-yl]-piperazin-1-yl-pyridin-3-yl-methanone] | 6.29
Cc1sc2nc(N3CCN(C(=O)c4ccccn4)CC3)nc(Nc3ccc(N4CCOCC4)nc3)c2c1C [Example 4, 4-[5,6-dimethyl-4-(6-morpholinopyridin-3-ylamino)-thieno[2,3-d]pyrimidin-2-yl]-piperazin-1-yl-pyridin-2-yl-methanone] | 6.15
Cc1sc2nc(N3CCN(C(=O)c4cccnc4)CC3)nc(Nc3ccc(N4CCOCC4)cc3)c2c1C [Example 2, 4-[5,6-dimethyl-4-(4-morpholin-4-yl-phenylamino)-thieno[2,3-d]pyrimidin-2-yl]-piperazin-1-yl-pyridin-3-yl-methanone] | 6.35
